Source: patent publication US9243036B2, “Anti-microbial activity of synthetic peptides” (THE UNITED STATES OF AMERICA, as represented by the …, priority 2012, dated 2016)

Legend:
[1] = system: E. coli and P. aeruginosa; assay: MIC of polymyxin B (bacterium not stated; E. coli / P. aeruginosa context); format: cell-based
Experimental: In vitro anti-bacterial activity of EC5. The test microorganisms mentioned earlier in the experimental procedures were used to evaluate the bactericidal activity of EC5 peptide. The minimum inhibitory concentrations (MICs) of the peptide were determined by standard dilution assay as recommended by Clinical and Laboratory Standard Institutes (CLSI) guidelines (Azad, M. A., et al., (2011) Antimicrob. Agents Chemother. 55, 2137-2145). Bacteria were grown to mid-logarithmic phase in cation-supplemented Mueller-Hinton broth (MHB) (Becton Dickinson, Sparks, Md.) on an orbital shaker (37° C.) and diluted to a 0.5 McFarland standard to a final volume of 1 ml. Decreasing concentrations of the peptide were incubated with the microorganisms. Results were recorded by visual inspection after 24 h of incubation at 37° C. Assay was repeated three separate times to ensure reproducibility. […]
Cytoplasmic depolarization assay(Δψ) was performed using the membrane potential sensitive dye 3,3′-dipropylthiadicarbocyanine iodide (diSC3-5) (Zang, L. et al., (2001) J. Biol. Chem. 276, 35714-35722). This dye can cross the outer membrane of the bacterial cell and become concentrated in the cytoplasmic membrane and thereby it self-quenches its own fluorescence. Upon addition of a membrane-permeabilizing agent the dye is released with consequent increase in the fluorescence. […]

[2] = polymyxin B; cited from earlier work
E. coli [3] = assay: Membrane permeability by PI and SYTO9 uptake (LIVE/DEAD BACLIGHT); format: cell-based; details: even at the lowest concentration used
Experimental: (§1) The effects of EC5 on the membrane integrity of E. coli and P. aeruginosa cells were assessed using the LIVE/DEAD BACLIGHT™ kit (Invitrogen, Oregon) according to the manufacturer's protocol. Membrane integrity of the cells after the addition of different concentrations of peptide EC5 was measured using fluorescence micro plate reader (BioTek Instruments, Winooski, Vt.). Experiments were done in triplicates. PMB was used as a positive control.
(§2) The membrane permeabilizing activity of EC5 was also studied using the SYTO9 and PI staining method. SYTO9 stain labels both live and dead bacteria when alone, but propidium iodide stains only cells with damaged membranes, reducing the level of green fluorescent SYTO9 when both the dyes are present. […] The ratio of green versus red fluorescence can be calculated as a measure of live bacteria. […] Polymyxin B, an AMP with a net charge of +5 with membrane permeabilizing activity was used as positive control.

P. aeruginosa [4] = assay: as above; format: cell-based; details: even at the lowest concentration used
Experimental: as §1, §2

[5] = literature; cited from earlier work
E. coli [6] = assay: Cytoplasmic membrane depolarization assay (diSC3-5) with parallel CFU plating; format: cell-based
Experimental: (§3) Membrane depolarization activity (Δψ) of the peptide was determined with intact E. coli and P. aeruginosa cells and the membrane potential-sensitive fluorescent dye, 3,3′-dipropylthiadicarbocyanine Iodide (diSC (3)5) (Invitrogen, Oregon), according to described methods (Sims, P. J., et al (1974) Biochemistry 13, 3315-3330). Briefly, bacterial cells of mid-logarithmic phase were harvested by centrifugation and washed twice with HEPES buffer (5 mM HEPES, 5 mM glucose, pH 7.6). The cells were suspended in the same buffer to an OD of 0.05. The cell suspension was incubated with […] diSC (3)5 until maximal uptake of the dye. 100 mM KCl was added to equilibrate the cytoplasmic and external potassium ion concentration of peptide, and fluorescence was monitored at an excitation wavelength of 622 nm and an emission wavelength of 670 nm. Polymyxin B was used as a positive control and S. aureus cells were used as negative control. Simultaneously the cells were plated on NA plates and incubated at 37° C. overnight to assess the number of CFU.
(§4) Cytoplasmic depolarization assay(Δψ) was performed using the membrane potential sensitive dye 3,3′-dipropylthiadicarbocyanine iodide (diSC3-5) (Zang, L. et al., (2001) J. Biol. Chem. 276, 35714-35722). This dye can cross the outer membrane of the bacterial cell and become concentrated in the cytoplasmic membrane and thereby it self-quenches its own fluorescence. Upon addition of a membrane-permeabilizing agent the dye is released with consequent increase in the fluorescence. EC5 at 8 μg/ml and 16 μg/ml caused rapid depolarization of the cytoplasmic membrane in both E. coli and P. aeruginosa resulting in the release of diSC3-5 within 5 min (FIG. 9C). […] However Polymyxin B even at its MIC of 0.5 μg/ml caused slow release of diSC3-5 when compared to EC5.

P. aeruginosa [7] = assay: as above; format: cell-based
Experimental: as §3, §4

[8] = polymyxin B at 3.125 μg/ml, after 5 min of exposure
[9] = polymyxin B at its MIC of 0.5 μg/ml, compared to EC5

In the case of Polymyxin B, the “MIC of polymyxin B” value [1] is given as 0.5 µg/mL, the net charge [2] is given as “+5” and the “permeabilization of bacterial cell membranes” value (E. coli [3]) is given as “able to permeabilize almost all bacterial cell membranes”. For the same substance, the “permeabilization of bacterial cell membranes” value (P. aeruginosa [4]) was “able to permeabilize almost all bacterial cell membranes”, the toxicity [5] was “high toxicity, especially nephrotoxicity” and the “time to complete inhibition of CFU” value (E. coli [6]; polymyxin B at 3.125 μg/ml) was no more than 5 min. For the same substance, the “release of diSC35 from the cells” value (E. coli [6]; [8]) was “minimal release”, the “release of diSC3-5” value (E. coli [6]; [9]) was “slow release” and the “time to complete inhibition of CFU” value (P. aeruginosa [7]; polymyxin B at 3.125 μg/ml) was no more than 5 min. The “release of diSC35 from the cells” value (P. aeruginosa [7]; [8]) was “minimal release” and the “release of diSC3-5” value (P. aeruginosa [7]; [9]) was “slow release”.
